These results are taken from article PMC9496155, “Amaryllidaceae Alkaloids Decrease the Proliferation, Invasion, and Secretion of Clinically Relevant Cytokines by Cultured Human Colon Cancer Cells” (Biomolecules, 2022).

Molecules are shown by their SMILES.

Assay type in all cases: cell-based, human
One assay deals with HT-29. In words: MTT viability assay, HT-29. The note with it: 72 h of exposure, TP53 mutant, mean of six replicates of one experiment, read-out: IC50 Cancer Cell Lines (C) HT-29. Here is the method:
(§1) HCT-116 (CCL-247), LoVo (CCL-229), DLD-1 (CCL-221), HT-29 (HTB-38) and CoN (CCD-841) human CRC cells were obtained from the ATCC (Manassas, VA, USA). HCT-116 cells were cultured in Dulbecco’s Modified Eagle’s Medium (DMEM; Corning Cellgro, Corning, NY, USA) for the invasion assays or RPMI-1640 medium (Lonza, Westburg, The Netherlands) for all other assays. The LoVo, DLD-1, and HT-29 cell lines were grown in RPMI-1640 for all experiments. Media were supplemented with 10% fetal bovine serum (FBS; Gibco, Waltham, MA, USA or Greiner Bio-One, Vilvoorde, Belgium), 100 U/mL penicillin, and 100 µg/mL streptomycin (Gibco, Waltham, MA). Cells were grown at 37 °C and 5% CO2 in a humidified atmosphere. The CoN cells were cultured in Eagle’s Minimum Essential Medium (Lonza, Westburg, The Netherlands) supplemented with 10% FBS (South America origin, Greiner Bio-One, Vilvoorde, Belgium). HCT-116 p53^-/- cells were obtained from Denis L.J. LaFontaine, Université Libre de Bruxelles, Brussels, Belgium.
(§2) Effects of compounds on viability were assessed by means of 3-(4,5-dimethylthiazol-2-yl)-2,5-diphenyltetrazolium bromide (MTT; Sigma-Aldrich, Diegem, Belgium) colorimetric assay as previously reported. Briefly, cells were seeded in flat-bottom 96-well plates at the appropriate cell density 24 h prior to the exposure or not to the compound of interest. Each compound was first solubilized in dimethylsulfoxide (DMSO) at 10^−2 M concentration and further diluted in a serial manner in the culture medium. Nine concentrations ranging from 10 nM to 100 µM were tested in sextuplicate within the assay. Evaluation of the cell viability was conducted after 72 h of exposure to the compound by means of MTT assay.
(Formazan colour is commonly taken as a measure of viable cells.)

The next assay has as its system LoVo. In words: MTT viability assay, LoVo. To be noted: 72 h of exposure, TP53 wild type, mean of six replicates of one experiment, read-out: IC50 Cancer Cell Lines (C) LoVo. How it is done: as §1, §2
The subject of a further assay is HCT-116^+/+. In words: MTT viability assay, HCT-116+/+. To be noted: 72 h of exposure, functional p53, mean of six replicates of one experiment, read-out: IC50 Cancer Cell Lines (C) HCT-116+/+. Here is the method:
as §1, §2

In the next assay the test system is HCT-116 cells. As to the kind of experiment: Adhesion assay (crystal violet), HCT-116. The note with it: 0.08 µM, 15 h, 0.5% FBS, one experiment. How it is done:
(§3) To evaluate the effects of the compounds on cell adhesion, 75000 HCT-116 or LoVo cells per well were seeded in 96-well flat-bottom plates in the presence or absence of each compound tested at three concentrations. In the first set of experiments, cells were allowed to adhere for 1, 5, 8, and 24 h and cultured with 10% FBS. Three independent experiments were performed each in sextuplicate to examine the time course of adhesion when grown with 10% FBS and increasing concentrations of each compound. In the second set of experiments cells were allowed to adhere for 15 h in a medium containing only 0.5% FBS to limit the contribution of proliferation to the results.
(§4) At the end of the incubation period, the plate was rinsed with phosphate buffered saline (PBS), fixed with 17.5% of formaldehyde at 4 °C for 15 min, and washed with deionized water twice before staining with 0.1% crystal violet (Sigma-Aldrich, Diegem, Belgium) in a 50:50 methanol/water mixture for 15 min. After extensive washes with water to remove any free crystal violet, the dye within the cells was extracted and solubilized in 100 µL of a 33% acetic acid solution and absorbance was measured at 570 nm (680XR, Bio-Rad Laboratories, Berkeley, CA, USA; reference wavelength 610 nm). The mean absorbance of the untreated control well was set at 100% for comparison. […]

Another assay has as its system VEGF. As to the kind of experiment: Luminex assay of VEGF in HCT-116 and LoVo cell supernatants. To be noted: 0.08 µM; 24 h; both cell lines. An excerpt: We ordered a customized Luminex® assay to quantify 15 targets at once from Biotechne (reference LXSAHM-15; R&D Systems, Abingdon, U.K.). The 15 targets were chosen on the basis of the literature as follows: the relevant metalloproteinases MMP-1, -2, -7, -9, -13 [49] and the cytokines associated with dismal prognosis or shorter disease-free survival period: C-C motif chemokine ligand (CCL) -4, CCL-22, Flt-3 ligand, IL-1β, IL-2, IL-6, IL-8, interferon gamma (IFNγ), vascular endothelial growth factor (VEGF), and pentraxin-3 [50]. Samples were prepared as follows: HCT-116 or LoVo cells were seeded in 6-well plates and allowed to adhere and grow until they reached 70% confluency. The culture medium was replaced by 1.5 mL of culture medium containing only 0.5% of FBS with or without the compounds to be tested (NAR at 80 nM, LYC at 6 µM, and HAE at 6 µM). After 24 h of treatment, supernatants were collected, aliquoted, and kept frozen at −80 °C. Three independent series of samples were prepared. […] We thus decided to concentrate several aliquots of our supernatant samples by centrifugation of 500 µL of supernatant with Amicon Ultra 0.5 mL filters characterized by a 3 kDa cut-off (UFC500324; Millipore, Merck, Hoeilaart, Belgium) leading to a final volume of 150 µL (3.3 times concentrated). The Luminex® assay was conducted according to manufacturer’s recommendations. […]

For the next assay, the system named is CoN. As to the kind of experiment: MTT viability assay, CoN normal colon epithelial cell line. The note with it: 72 h of exposure, mean of six replicates of one experiment, read-out: IC50 Normal Cell Line (N) CoN. Here is the method: as §1, §2
For a further assay, the system named is LoVo cells. As to the kind of experiment: Adhesion assay (crystal violet), LoVo. The note with it: 0.08 µM, 15 h, 0.5% FBS, one experiment. How it is done: as §3, §4

`O=C1N[C@@H]2C(=C[C@H](O)[C@@H](O)[C@H]2O)c2cc3c(c(O)c21)OCO3` [NAR, narciclasine]: the IC50 in the assay with HT-29 worked out at 32 nM; in the assay with LoVo it was 52 nM; in the assay on HCT-116^+/+ it was 23 nM; in the assay with CoN it was 1100 nM. Further, the “inhibition of cell adhesion” value in the assay on HCT-116 cells is reported as 39%. Also, in the assay on VEGF, the “VEGF levels, times decreased” value is given as “up to 5 times”. The “maximal inhibition of cell adhesion” value with LoVo cells worked out at 18%.
